Laboratory results taken from article PMC12519060, “The anabolic steroid stanozolol is a potent inhibitor of human MutT homolog 1” (Febs Letters, 2025).

Key:
[1] = biological target: T1, hMTH1 (human MutT homolog 1) (Homo sapiens, UniProt P36639); assay: modified Malachite Green assay with inorganic pyrophosphatase; format: biochemical; design: gene NUDT1; E. coli-optimised cDNA in pET28a(+), expressed in E. coli BL21(DE3); His-tag removed with thrombin; monomer
[2] = biological target: T1, hMTH1 (human MutT homolog 1); design: gene NUDT1; conditions: substrate dGTP 100 μM, 6 nM hMTH1, 10 mM Mg acetate, 1% DMSO, 22 °C, active site (crystal structure, metal free) buffer, no inhibition seen, bound not given

| SMILES | IC50 [1] | no inhibition [2] |
| --- | --- | --- |
| C[C@]12Cc3c[nH]nc3C[C@@H]1CC[C@@H]1[C@@H]2CC[C@@]2(C)[C@H]1CC[C@]2(C)O [stanozolol] | 0.026 µM |  |
| C[C@]12CCC(=O)C[C@@H]1CC[C@@H]1[C@@H]2CC[C@]2(C)[C@@H](O)CC[C@@H]12 [Dihydrotestosterone] |  | while DHT did not show any inhibition of hMTH1 (Fig. S1) |
